In ChEMBL document CHEMBL1127755, “Comparative molecular field analysis using GRID force-field and GOLPE variable selection methods in a study of inhibitors of glycogen phosphorylase b” (J Med Chem, 1994):

Biological target: Glycogen phosphorylase, muscle form (Oryctolagus cuniculus) (UniProt P00489)
Assay: Tested for inhibition constant against glycogen phosphorylase b
Set-up: scale not given here

Glycogen phosphorylase, muscle form (Oryctolagus cuniculus), sequence (P00489 whole entry, looked up): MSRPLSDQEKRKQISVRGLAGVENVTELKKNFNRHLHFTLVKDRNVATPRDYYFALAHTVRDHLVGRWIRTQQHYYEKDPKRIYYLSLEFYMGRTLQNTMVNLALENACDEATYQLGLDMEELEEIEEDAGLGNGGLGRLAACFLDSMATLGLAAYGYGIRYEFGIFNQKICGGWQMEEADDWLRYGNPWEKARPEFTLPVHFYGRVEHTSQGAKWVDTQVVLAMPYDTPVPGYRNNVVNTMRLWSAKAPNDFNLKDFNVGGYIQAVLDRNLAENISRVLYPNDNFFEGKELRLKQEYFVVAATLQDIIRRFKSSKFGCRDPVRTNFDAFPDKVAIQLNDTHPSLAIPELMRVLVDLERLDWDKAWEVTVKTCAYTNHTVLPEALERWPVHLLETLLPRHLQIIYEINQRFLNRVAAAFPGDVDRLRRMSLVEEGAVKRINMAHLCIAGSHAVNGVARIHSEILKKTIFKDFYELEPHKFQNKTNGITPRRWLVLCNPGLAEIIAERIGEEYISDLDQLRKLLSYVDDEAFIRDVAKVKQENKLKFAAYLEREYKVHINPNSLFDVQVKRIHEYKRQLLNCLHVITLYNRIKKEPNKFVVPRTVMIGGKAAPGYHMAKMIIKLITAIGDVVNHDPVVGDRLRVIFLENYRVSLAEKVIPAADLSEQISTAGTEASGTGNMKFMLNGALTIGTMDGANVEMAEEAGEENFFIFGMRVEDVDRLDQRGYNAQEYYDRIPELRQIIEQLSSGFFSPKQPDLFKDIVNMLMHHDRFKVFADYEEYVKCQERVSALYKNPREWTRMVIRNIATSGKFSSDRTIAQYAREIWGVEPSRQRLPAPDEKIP

Exp Inhib Constant | SMILES
2 | [N-]=[N+]=NC[C@@]1(O)O[C@@H](CO)[C@@H](O)[C@H](O)[C@@H]1O
1.57 | CS(=O)(=O)OCC1OC(CO)C(O)C(O)C1O (stereo not given)
1.1 | NNC(=O)[C@@H]1O[C@H](CO)[C@@H](O)[C@H](O)[C@H]1O (stereo in doubt; 25)
2.2 | N#CC[C@@H]1O[C@H](CO)[C@@H](O)[C@H](O)[C@H]1O
-3.22 | O=C(CCl)N[C@H]1O[C@H](CO)[C@@H](O)[C@H](O)[C@H]1O
1.5 | NCCC1OC(CO)C(O)C(O)C1O (stereo not given)
-1.61 | NC(=O)[C@@H]1O[C@H](CO)[C@@H](O)[C@H](O)[C@H]1O
0.96 | OC[C@H]1O[C@@H](Oc2cc3ccccc3[nH]2)[C@H](O)[C@@H](O)[C@@H]1O
1.72 | O=C(Nc1ccc(O)cc1)C1OC(CO)C(O)C(O)C1O (stereo not given)
2.53 | O=C(Nc1ccccc1)C1OC(CO)C(O)C(O)C1O (stereo not given)
-1.61 | OCC1OC(F)C(F)C(O)C1O (stereo not given)
0.92 | COC(=O)C1OC(CO)C(O)C(O)C1O (stereo in doubt; 33)
2.76 | OC[C@@H]1O[C@@](O)(CO)[C@@H](O)[C@@H](O)[C@@H]1O
2.15 | OCc1ccccc1O[C@H]1O[C@H](CO)[C@@H](O)[C@H](O)[C@H]1O
0.41 | OCC1OC(CO)C(O)C(O)C1O (stereo in doubt; 9)
3.54 | NCC1OC(CO)C(O)C(O)C1O (stereo in doubt; 14)
2.03 | N#CC[C@]1(O)O[C@H](CO)[C@@H](O)[C@H](O)[C@H]1O
3.19 | COC(=O)C1OC(CO)C(O)C(O)C1O (stereo in doubt; 31)

Exp Inhib Constant | SMILES
0 | OCC1OC(S)C(O)C(O)C1O (stereo not given)
2.82 | NCC1OC(CO)C(O)C(O)C1O (stereo in doubt; 15)
-0.99 | NC(=O)C1OC(CO)C(O)C(O)C1O (stereo in doubt; 20)
3.09 | OCC1OC(CO)C(O)C(O)C1O (stereo in doubt; 10)
3.6 | NC(=O)[C@H]1O[C@H](CO)[C@@H](O)[C@H](O)[C@H]1O
2.49 | CO[C@H]1O[C@H](CO)[C@H](O)[C@H](O)[C@H]1O
3.11 | [N-]=[N+]=NC[C@H]1O[C@H](CO)[C@@H](O)[C@H](O)[C@H]1O
1.31 | CS(=O)(=O)OC[C@]1(O)O[C@@H](CO)[C@@H](O)[C@H](O)[C@@H]1O
3.05 | NC(=O)CS[C@H]1O[C@H](CO)[C@@H](O)[C@H](O)[C@H]1O
2.79 | OC[C@H]1O[C@H](OCC2O[C@@H](O)[C@H](O)[C@@H](O)[C@@H]2O)[C@H](O)[C@@H](O)[C@H]1O (stereo not given in full)
-0.92 | NNC(=O)[C@@H]1O[C@H](CO)[C@@H](O)[C@H](O)[C@H]1O (stereo in doubt; 35)
3.23 | OCCO[C@@H]1O[C@H](CO)[C@@H](O)[C@H](O)[C@H]1O
3.21 | CO[C@@H]1O[C@H](CO)[C@H](O)[C@H](O)[C@H]1O
3.97 | CC1OC(CO)C(O)C(O)C1O (stereo not given)
2.72 | [N-]=[N+]=NC[C@@H]1O[C@H](CO)[C@@H](O)[C@H](O)[C@H]1O
-0.82 | NC(=O)C1OC(CO)C(O)C(O)C1O (stereo in doubt; 27)
0.69 | O[C@@H]1[C@@H](O)[C@@H](O)O[C@H](CS)[C@H]1O
